In ChEMBL document CHEMBL4507274 (2021):

Key:
[1] = target: Serine/threonine-protein kinase WNK4 (Homo sapiens) (UniProt Q96J92); conditions: Compound concentration 100.0 nM
[2] = target: T1, Protein kinase C epsilon type (Homo sapiens) (UniProt Q02156); conditions: Compound concentration 100.0 nM
T1 sequence (whole entry): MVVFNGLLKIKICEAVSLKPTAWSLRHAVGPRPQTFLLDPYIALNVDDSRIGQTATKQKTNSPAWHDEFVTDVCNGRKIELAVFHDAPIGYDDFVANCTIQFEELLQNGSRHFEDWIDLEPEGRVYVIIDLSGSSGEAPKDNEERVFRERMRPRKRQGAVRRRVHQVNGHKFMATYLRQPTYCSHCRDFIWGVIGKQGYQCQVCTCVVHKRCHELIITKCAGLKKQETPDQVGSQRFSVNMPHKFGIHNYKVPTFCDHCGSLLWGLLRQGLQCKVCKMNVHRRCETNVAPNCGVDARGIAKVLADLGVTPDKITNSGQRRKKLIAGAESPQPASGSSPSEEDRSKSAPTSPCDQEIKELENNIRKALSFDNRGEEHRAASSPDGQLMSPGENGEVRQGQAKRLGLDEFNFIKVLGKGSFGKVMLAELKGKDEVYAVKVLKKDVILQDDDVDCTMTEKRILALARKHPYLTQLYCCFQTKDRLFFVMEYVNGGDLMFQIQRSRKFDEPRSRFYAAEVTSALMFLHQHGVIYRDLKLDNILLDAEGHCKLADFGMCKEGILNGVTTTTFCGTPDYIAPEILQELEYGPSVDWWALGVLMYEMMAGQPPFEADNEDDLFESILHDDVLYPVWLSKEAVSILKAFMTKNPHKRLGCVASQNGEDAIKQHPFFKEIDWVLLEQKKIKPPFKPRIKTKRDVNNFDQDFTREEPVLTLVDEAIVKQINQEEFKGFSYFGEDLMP

[3] = target: MAP/microtubule affinity-regulating kinase 3 (Homo sapiens) (UniProt P27448); conditions: Compound concentration 100.0 nM
[4] = target: Mitogen-activated protein kinase 10 (Homo sapiens) (UniProt P53779); conditions: Compound concentration 100.0 nM
[5] = target: 5-hydroxytryptamine receptor 2C (Homo sapiens) (UniProt P28335); conditions: Compound concentration 10.0 uM
[6] = target: Serine/threonine-protein kinase OSR1 (Homo sapiens) (UniProt O95747); conditions: Compound concentration 100.0 nM
[7] = target: Rhodopsin kinase GRK1 (Homo sapiens) (UniProt Q15835); conditions: Compound concentration 100.0 nM
[8] = target: Cyclin-dependent kinase 2 homolog (Plasmodium falciparum (isolate 3D7)) (UniProt P61075); conditions: Compound concentration 100.0 nM
Sequence of Cyclin-dependent kinase 2 homolog (Plasmodium falciparum (isolate 3D7)) (P61075 whole entry): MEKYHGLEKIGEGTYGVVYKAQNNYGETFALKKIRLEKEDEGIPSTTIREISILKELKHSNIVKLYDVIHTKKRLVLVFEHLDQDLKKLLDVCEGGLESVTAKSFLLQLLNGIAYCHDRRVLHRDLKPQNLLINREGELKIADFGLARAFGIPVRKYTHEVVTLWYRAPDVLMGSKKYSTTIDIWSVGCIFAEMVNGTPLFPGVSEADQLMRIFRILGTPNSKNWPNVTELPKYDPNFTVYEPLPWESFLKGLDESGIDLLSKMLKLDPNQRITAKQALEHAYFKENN

[9] = target: T2, Aurora kinase A (Homo sapiens) (UniProt O14965); conditions: Compound concentration 100.0 nM
T2 sequence (whole entry): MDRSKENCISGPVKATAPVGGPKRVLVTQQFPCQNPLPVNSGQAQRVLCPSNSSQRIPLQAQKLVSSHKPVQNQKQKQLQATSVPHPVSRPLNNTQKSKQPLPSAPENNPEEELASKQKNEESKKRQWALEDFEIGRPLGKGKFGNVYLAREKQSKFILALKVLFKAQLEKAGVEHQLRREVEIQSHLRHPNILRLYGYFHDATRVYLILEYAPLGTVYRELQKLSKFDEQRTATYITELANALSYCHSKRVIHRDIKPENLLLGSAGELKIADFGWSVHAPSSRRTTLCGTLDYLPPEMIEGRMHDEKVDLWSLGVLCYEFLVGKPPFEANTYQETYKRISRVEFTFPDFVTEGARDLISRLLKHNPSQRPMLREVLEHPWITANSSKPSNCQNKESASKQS

[10] = target: Non-receptor tyrosine-protein kinase TYK2 (Homo sapiens) (UniProt P29597); conditions: Compound concentration 100.0 nM
[11] = target: Cyclin-dependent kinase 4 (Homo sapiens) (UniProt P11802); conditions: Compound concentration 100.0 nM
Sequence of Cyclin-dependent kinase 4 (Homo sapiens) (P11802 whole entry): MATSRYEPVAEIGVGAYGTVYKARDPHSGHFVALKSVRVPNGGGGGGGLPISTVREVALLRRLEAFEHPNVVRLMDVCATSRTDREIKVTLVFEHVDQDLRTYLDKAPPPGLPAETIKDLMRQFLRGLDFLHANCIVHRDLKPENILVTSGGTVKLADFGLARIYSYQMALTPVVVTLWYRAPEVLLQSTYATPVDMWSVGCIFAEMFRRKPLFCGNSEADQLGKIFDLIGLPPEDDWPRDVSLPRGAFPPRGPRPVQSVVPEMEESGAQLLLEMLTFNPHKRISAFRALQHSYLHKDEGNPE

[12] = target: Dual specificity protein kinase CLK4 (Homo sapiens) (UniProt Q9HAZ1); conditions: Compound concentration 100.0 nM
[13] = target: Histamine H1 receptor (Homo sapiens) (UniProt P35367); conditions: Compound concentration 10.0 uM
Sequence of Histamine H1 receptor (Homo sapiens) (P35367 whole entry): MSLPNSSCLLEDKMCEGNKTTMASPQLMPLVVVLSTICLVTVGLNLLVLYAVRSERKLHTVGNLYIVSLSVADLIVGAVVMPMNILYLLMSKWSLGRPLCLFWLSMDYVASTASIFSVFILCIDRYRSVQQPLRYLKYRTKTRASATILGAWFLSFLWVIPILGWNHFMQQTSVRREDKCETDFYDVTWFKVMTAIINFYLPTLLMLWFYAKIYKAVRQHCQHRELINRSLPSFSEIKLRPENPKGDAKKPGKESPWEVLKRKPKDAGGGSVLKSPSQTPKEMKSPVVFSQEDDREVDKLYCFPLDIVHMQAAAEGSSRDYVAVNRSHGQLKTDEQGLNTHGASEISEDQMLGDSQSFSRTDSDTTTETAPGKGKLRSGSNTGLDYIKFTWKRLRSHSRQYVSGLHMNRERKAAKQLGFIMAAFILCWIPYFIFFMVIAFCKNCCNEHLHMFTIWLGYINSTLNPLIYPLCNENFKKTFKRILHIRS

[14] = target: Fibroblast growth factor receptor 2 (Homo sapiens) (UniProt P21802); conditions: Compound concentration 100.0 nM
Sequence of Fibroblast growth factor receptor 2 (Homo sapiens) (P21802 22-821 limits assumed): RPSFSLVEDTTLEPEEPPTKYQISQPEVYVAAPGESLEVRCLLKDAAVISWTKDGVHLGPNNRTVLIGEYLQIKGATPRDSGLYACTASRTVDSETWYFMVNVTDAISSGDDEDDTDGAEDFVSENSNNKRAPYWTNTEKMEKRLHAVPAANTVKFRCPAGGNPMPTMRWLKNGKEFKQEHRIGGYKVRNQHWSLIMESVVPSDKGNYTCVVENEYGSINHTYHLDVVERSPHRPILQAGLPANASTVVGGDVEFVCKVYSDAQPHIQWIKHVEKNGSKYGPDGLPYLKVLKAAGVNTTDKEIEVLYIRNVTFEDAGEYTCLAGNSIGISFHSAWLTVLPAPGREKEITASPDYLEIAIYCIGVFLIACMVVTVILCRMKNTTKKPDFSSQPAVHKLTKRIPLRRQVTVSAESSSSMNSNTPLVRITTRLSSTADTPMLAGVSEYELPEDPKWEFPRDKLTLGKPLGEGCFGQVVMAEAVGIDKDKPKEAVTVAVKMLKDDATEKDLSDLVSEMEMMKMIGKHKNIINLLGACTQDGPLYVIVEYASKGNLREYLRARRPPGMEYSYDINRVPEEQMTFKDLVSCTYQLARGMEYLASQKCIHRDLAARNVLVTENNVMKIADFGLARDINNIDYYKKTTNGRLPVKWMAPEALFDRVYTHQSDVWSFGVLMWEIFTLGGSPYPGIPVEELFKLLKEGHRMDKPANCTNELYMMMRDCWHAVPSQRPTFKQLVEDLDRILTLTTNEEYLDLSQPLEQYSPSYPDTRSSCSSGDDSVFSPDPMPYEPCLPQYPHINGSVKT

[15] = target: Mitogen-activated protein kinase 8 (Homo sapiens) (UniProt P45983); conditions: Compound concentration 100.0 nM
[16] = target: Serine/threonine-protein kinase 17B (Homo sapiens) (UniProt O94768); conditions: Compound concentration 100.0 nM
[17] = target: Serine/threonine-protein kinase DCLK3 (Homo sapiens) (UniProt Q9C098); conditions: Compound concentration 100.0 nM
Sequence of Serine/threonine-protein kinase DCLK3 (Homo sapiens) (Q9C098 whole entry): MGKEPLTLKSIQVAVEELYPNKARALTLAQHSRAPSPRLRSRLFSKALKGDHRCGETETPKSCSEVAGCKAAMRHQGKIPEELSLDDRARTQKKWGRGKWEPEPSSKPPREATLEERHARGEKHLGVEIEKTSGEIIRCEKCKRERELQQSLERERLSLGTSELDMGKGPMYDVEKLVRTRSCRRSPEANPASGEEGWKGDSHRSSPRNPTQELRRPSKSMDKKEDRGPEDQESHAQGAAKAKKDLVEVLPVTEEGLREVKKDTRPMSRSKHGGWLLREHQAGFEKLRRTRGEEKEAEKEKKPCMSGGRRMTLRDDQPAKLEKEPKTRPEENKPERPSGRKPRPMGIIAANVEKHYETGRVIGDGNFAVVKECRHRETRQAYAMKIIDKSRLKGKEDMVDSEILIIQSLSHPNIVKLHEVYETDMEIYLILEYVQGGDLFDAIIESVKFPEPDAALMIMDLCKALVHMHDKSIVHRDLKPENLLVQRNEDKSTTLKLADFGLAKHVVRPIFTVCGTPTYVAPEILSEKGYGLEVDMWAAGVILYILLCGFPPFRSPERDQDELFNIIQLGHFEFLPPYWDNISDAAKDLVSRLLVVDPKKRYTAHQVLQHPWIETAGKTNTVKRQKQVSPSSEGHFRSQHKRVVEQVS

[18] = target: Serine/threonine-protein kinase ULK1 (Homo sapiens) (UniProt O75385); conditions: Compound concentration 100.0 nM
[19] = target: D(4) dopamine receptor (Homo sapiens) (UniProt P21917); conditions: Compound concentration 10.0 uM
[20] = target: ALK tyrosine kinase receptor (Homo sapiens) (UniProt Q9UM73); conditions: Compound concentration 100.0 nM
Sequence of ALK tyrosine kinase receptor (Homo sapiens) (Q9UM73 19-1620 limits assumed): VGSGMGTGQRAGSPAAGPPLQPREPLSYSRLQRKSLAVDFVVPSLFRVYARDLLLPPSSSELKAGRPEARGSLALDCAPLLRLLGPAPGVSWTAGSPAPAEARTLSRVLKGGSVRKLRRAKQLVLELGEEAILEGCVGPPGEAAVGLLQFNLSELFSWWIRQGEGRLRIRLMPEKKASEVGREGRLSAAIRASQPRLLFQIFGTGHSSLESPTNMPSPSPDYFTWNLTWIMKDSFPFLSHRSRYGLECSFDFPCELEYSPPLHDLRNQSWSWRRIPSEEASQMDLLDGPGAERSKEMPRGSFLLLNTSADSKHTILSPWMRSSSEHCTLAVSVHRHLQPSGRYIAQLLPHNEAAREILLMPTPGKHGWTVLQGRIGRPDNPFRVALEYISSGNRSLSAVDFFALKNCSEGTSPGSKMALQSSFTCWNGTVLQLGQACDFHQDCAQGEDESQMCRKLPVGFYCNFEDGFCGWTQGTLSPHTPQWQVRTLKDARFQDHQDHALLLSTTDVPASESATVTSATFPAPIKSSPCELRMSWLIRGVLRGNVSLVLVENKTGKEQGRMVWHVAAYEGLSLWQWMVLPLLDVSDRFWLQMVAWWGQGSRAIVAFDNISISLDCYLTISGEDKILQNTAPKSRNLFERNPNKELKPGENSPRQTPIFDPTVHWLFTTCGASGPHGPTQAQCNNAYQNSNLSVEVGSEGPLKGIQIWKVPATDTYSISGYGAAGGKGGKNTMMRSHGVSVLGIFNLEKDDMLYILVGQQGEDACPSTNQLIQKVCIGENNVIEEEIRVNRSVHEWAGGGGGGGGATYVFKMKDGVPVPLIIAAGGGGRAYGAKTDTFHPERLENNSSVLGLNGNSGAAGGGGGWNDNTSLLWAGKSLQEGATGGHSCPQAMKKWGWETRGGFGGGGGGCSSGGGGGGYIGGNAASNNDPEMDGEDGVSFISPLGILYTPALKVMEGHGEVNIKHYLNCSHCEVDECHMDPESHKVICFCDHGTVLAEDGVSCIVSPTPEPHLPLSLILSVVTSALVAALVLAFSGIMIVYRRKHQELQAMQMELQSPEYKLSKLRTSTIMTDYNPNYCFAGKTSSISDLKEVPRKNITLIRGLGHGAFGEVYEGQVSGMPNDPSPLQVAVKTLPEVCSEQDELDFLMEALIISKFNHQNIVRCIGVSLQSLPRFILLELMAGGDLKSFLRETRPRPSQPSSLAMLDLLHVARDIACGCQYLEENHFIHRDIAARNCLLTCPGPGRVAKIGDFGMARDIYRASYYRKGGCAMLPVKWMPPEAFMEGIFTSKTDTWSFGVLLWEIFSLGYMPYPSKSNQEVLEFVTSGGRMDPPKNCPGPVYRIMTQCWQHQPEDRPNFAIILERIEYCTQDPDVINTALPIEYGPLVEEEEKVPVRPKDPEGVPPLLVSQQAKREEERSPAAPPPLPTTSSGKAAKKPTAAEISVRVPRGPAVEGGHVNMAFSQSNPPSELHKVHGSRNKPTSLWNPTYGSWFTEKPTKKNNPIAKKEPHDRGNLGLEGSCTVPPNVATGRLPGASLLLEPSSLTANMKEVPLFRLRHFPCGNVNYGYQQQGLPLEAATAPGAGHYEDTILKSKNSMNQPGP

[21] = target: Wee1-like protein kinase 2 (Homo sapiens) (UniProt P0C1S8); conditions: Compound concentration 100.0 nM
Sequence of Wee1-like protein kinase 2 (Homo sapiens) (P0C1S8 whole entry, looked up): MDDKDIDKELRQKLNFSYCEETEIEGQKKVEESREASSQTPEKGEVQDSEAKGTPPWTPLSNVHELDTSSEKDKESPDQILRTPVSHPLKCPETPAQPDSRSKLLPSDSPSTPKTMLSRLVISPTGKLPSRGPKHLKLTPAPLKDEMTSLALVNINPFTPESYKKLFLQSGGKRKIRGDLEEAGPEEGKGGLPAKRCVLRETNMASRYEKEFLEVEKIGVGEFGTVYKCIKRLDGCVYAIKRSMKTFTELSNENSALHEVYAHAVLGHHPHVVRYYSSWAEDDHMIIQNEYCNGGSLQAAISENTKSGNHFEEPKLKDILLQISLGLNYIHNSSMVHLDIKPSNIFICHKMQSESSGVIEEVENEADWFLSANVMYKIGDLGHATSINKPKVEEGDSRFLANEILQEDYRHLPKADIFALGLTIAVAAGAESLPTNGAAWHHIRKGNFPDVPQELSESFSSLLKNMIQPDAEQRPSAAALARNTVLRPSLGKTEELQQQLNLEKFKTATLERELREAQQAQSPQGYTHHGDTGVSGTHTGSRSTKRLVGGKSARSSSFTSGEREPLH

[22] = target: Macrophage-stimulating protein receptor (Homo sapiens) (UniProt Q04912); conditions: Compound concentration 100.0 nM
[23] = target: T3, Serine/threonine-protein kinase Nek2 (Homo sapiens) (UniProt P51955); conditions: Compound concentration 100.0 nM
T3 sequence (whole entry): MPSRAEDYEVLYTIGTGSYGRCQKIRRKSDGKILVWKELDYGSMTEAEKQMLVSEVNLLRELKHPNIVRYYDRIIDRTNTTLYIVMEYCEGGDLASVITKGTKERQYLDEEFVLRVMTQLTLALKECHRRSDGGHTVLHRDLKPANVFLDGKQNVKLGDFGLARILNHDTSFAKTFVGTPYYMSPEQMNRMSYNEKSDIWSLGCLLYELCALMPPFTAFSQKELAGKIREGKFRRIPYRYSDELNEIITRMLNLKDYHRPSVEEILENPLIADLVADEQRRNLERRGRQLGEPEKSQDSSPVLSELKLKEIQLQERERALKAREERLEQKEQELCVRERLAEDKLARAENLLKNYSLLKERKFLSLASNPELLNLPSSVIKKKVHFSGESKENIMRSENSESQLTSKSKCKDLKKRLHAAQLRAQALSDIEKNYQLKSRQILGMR

[24] = target: Serine/threonine-protein kinase Nek4 (Homo sapiens) (UniProt P51957); conditions: Compound concentration 100.0 nM

Cc1c[nH]c2nccc(Oc3c(F)cc(Nc4cc(Cl)nc(N)n4)cc3F)c12 [BAY-549]
inactive: residual activity [1] 100% | residual activity [2] 96% | residual activity [3] 74% | residual activity [4] 81% | inhibition [5] 22.1% | residual activity [6] 92% | residual activity [7] 82% | residual activity [8] 72% | residual activity [9] 94% | residual activity [10] 78% | residual activity [11] 100% | residual activity [12] 86% | inhibition [13] -0.06% | residual activity [14] 100% | residual activity [15] 80% | residual activity [16] 100% | residual activity [17] 97% | residual activity [18] 92% | inhibition [19] 11.4% | residual activity [20] 95% | residual activity [21] 91% | residual activity [22] 74% | residual activity [23] 97% | residual activity [24] 90%

Cn1cc(Cl)c2c(Oc3c(F)cc(Nc4cc(Cl)nc(N)n4)cc3F)ccnc21 [BAY-4900]
inactive: residual activity [1] 100% | residual activity [2] 91% | residual activity [3] 83% | residual activity [4] 80% | inhibition [5] 2.72% | residual activity [6] 93% | residual activity [7] 92% | residual activity [8] 68% | residual activity [9] 100% | residual activity [10] 81% | residual activity [11] 100% | residual activity [12] 100% | inhibition [13] 3.19% | residual activity [14] 98% | residual activity [15] 76% | residual activity [16] 84% | residual activity [17] 89% | residual activity [18] 93% | inhibition [19] 11.3% | residual activity [20] 89% | residual activity [21] 93% | residual activity [22] 87% | residual activity [23] 100% | residual activity [24] 84%
